Results on two compounds are retold here after patent publication US12661353B2, “SPT5 inhibitors and uses thereof” (Yeda Research and Development Co. Ltd., priority 2020, dated 2026).

One may read the IC50 as the concentration that gives 50% inhibition.

For test [1], the target named is T1, Spt5-Pol II interaction (NGN and KOW 1&2 of Spt5, coiled-coil domain of Rpb1) (Homo sapiens, UniProt P24928).
T1 construct: the region spanning NGN and KOW 1&2 of Spt5 and the coiled-coil (CC) domain of Rpb1; the coiled-coil (CC) domain of Rpb1, the large subunit of Pol II, were fused to N-RL and C-RL, respectively; made in house; host or cells: E. coli (pRSFDuet double expression plasmid); bacterial cell lysate used unpurified
Description: Split-Renilla luciferase (RL) complementation assay of Spt5-Pol II interaction. The class given is binding. The source says:
Plasmid construction—The mammalian expression plasmids RSV-AC/AN Renilla luciferase (pRL-AC/AN), encoding the N-terminal amino acid residues 1-229 or the C-terminus 230-311 of the Renilla luciferase (RL) were previously described in Ashkenazi et al., 2016; and Ashkenazi et al., 2017. The split-Renilla luciferase fusion plasmids were constructed by two-step PCR using the pRL-AC or pRL-AN as backbones and plasmids encoding the region spanning NGN and KOW 1&2 of human Spt5 (SEQ ID NOs: 1-3) or the coiled-coil (CC) domain of human Rpb1 (SEQ ID NOs: 4-6), respectively, as insert sources. For bacterial expression of the split-RL fusion proteins the double expression plasmid pRSFDuet was used. All constructs were verified by sequencing.
High-throughput drug screening (HTS)—About 100,000 compounds [from MEGxp library: Pure natural compounds from plants (see Table 1 hereinbelow) were screened for their effect on Spt5-Pol II interaction (a schematic representation of the assay is shown in FIG. 1B). […] Compounds that diminished the luminescence activity by >30% were subjected for an additional screen with a bacterial lysate expressing recombinant full-length RL (diluted 1: 500 in phosphate buffer) that served as a control for false-positive compounds that inhibit the RL enzymatic activity itself (Ashkenazi et al., 2017). […]

Test [2] has as its target T2, endogenous Spt4/Spt5-Pol II complex (Homo sapiens, UniProt O00267+P24928).
T2 construct: endogenous in cells; host or cells: HeLa cell lysate, immunoprecipitated with anti-Spt5 antibody
Description: Co-immunoprecipitation of endogenous Spt4/Spt5-Pol II complex, HeLa lysates. The class given is binding. The conditions noted are these: 50 μM. On the procedure: Co-immunoprecipitation (CO-IP)—HeLa cells were detached from a 10 cm dish with ice-cold PBS and a cell scraper, centrifuged for 5 minutes at 2,000 rpm and re-suspended in 200 μl lysis buffer (20 mM Tris-HCl pH 8, 400 mM NaCl, 2 mM EDTA, 0.5% NP-40, 10% glycerol) to which a protease inhibitor cocktail (1:100) and PMSF (200 μM) were freshly added. The lysates were rotated for 10 minutes at 4° C.; and centrifuged for 15 minutes at 13,000 rpm. Following, the supernatants were diluted with lysis buffer without NaCl to reach a final concentration of 100 mM NaCl. Cell lysates were then incubated at 4° C. overnight with an anti-Spt5 antibody (Tadashi Wada et al., 1998 Genes and Development. PMID: 9450929) or rabbit IgG (SC-2025, Santa Cruz Biotechnology), followed by 2 hours incubation at 4° C. with Protein A/G Sepharose beads (GE Healthcare). Following, the samples were washed 3 times and incubated for 2 hours at 4° C. with DMSO (vehicle control) or the indicated compound. The immune-precipitated proteins were detected by SDS-PAGE followed by western blot using an anti-Spt5, anti-Pol II (ab817, Abcam) or anti-Spt4 (Kim D K. et al, Genes to cells 2003 PMID: 12653964).
In the next step, co-immunoprecipitation in the presence of SPI-21 or SPI-18 was performed to test their effect of endogenous Spt4/Spt5-Pol II complex. […]

In turn, `Nc1ccccc1SC(CC(=O)c1cccs1)c1cccs1` (stereo not shown) [SPI-18] registered a 50% inhibitory concentration (IC50) in test [1] of 33 µM. Further, in test [2], the “effect on Spt5-Pol II binding (co-immunoprecipitation)” value is given as “did not disrupt Spt5-Pol II binding”.

`COc1ccc(C=CC(=O)c2cc(O)ccc2O)cc1` [SPI-21] came in with an IC50 in test [1] of 25 µM. Besides, the “effect on Spt5-Pol II binding (co-immunoprecipitation)” value in test [2] is “did not disrupt Spt5-Pol II binding”.
